{
  "source": "patent US8374794B1",
  "about": "“Protein synthesis modulators” (Rib-X Pharmaceuticals, Inc., priority 2003, dated 2013)",
  "target": "T1, H. marismortui large ribosomal subunit (Haloarcula marismortui, UniProt P32411)",
  "T1 construct": "Ribosomes were purified and crystallized as described previously; endogenous in cells; host or cells: Haloarcula marismortui (ribosomes purified from the organism)",
  "assay": "X-ray diffraction of large ribosomal subunit crystals soaked with cycloheximide",
  "format": "binding",
  "conditions": "crystals soaked with about 30 mM cycloheximide, 1% DMSO, 4° C., 24 hours; difference Fourier maps at 3.0 A resolution",
  "description": "The present invention is based, in part, upon the three-dimensional structure of cycloheximide when associated with the large ribosomal subunit. Crystals of the H. marismortui large ribosomal subunit were soaked with cycloheximide at a concentration of about 30 mM, which is equivalent to about […], and the structure of the large ribosome subunit complexed with cycloheximide was resolved via X-ray diffraction studies.\nBriefly, a small amount of a concentrated cycloheximide solution was added to a large subunit crystal suspended in stabilization solution and incubated for several hours. Following freezing and the other procedures normally used to prepare such crystals for experimental use, X-ray diffraction data were collected from the cycloheximide containing crystals. […]\nThe atomic co-ordinates of the large ribosomal subunit associated with cycloheximide are recorded on compact disk, Disk No. 1, under file name cycloheximide.pdb. […]\nElectron density corresponding to the antibiotic was first seen in Fo (antibiotic)-Fc (native) difference Fourier maps at 3.0 A resolution. […] The atomic co-ordinates defining the structure of cycloheximide when bound to the large ribosomal subunit are recorded on compact disk, Disk No. 1 under file name cycloheximide.pdb.",
  "data": [
    {"smiles": "C[C@@H]1C[C@@H]([C@H](O)CC2CC(=O)NC(=O)C2)C(=O)[C@@H](C)C1", "note": "(relative stereo) [cycloheximide, [1S-[1α(S*),3α,5β]]-4-[2-(3,5-dimethyl-2-oxocyclohexyl)-2-hydroxyethyl]-2,6-piperidinedione]", "values": [
      {"measurement": "binding of cycloheximide in the large ribosomal subunit (specific vs. non-specific sites)", "value": "bound to a single location in the large ribosomal subunit"}
    ]}
  ]
}
